Data published in patent US12583859B2, “PRMT5 inhibitors and uses thereof” (California Institute of Technology, priority 2019, dated 2026).

Assays:
PRMT5 = biological target: T1, PRMT5 (Homo sapiens, UniProt O14744); assay: PRMT5 Enzymatic Inhibition Assay (chemiluminescence immunoassay of histone H4 methylation); type: biochemical; conditions: 1 hour at room temperature; 10 μM to 1 nM
T1 construct: purchased BPS Biosciences 52002L
Description: A chemiluminescence immunoassay (CLIA) measuring the amount of PRMT5-mediated histone methylation was performed in a 96-well plate format according to the manufacturer's protocol (BPS Biosciences, Cat #52002L). A 96-well plate precoated with histone H4 peptide was rehydrated prior to use. A master mix containing PRMT5 substrate S-adenosylmethionine, reaction buffer, and purified PRMT5 enzyme was added to create reaction-competent wells. Wells lacking either S-adenosylmethionine substrate or PRMT5 enzyme were created as negative controls. 10 test concentrations, ranging from 100 μM to 10 nM, of the test compound were prepared using a 1:3 serial dilution in dH2O. 5 μL of each test concentration was added into a reaction-competent well. 5 μL of a 1% DMSO aqueous solution lacking inhibitor was added into negative control wells and into a reaction-competent well, creating a positive control well. The final reaction volume in each well was 50 μL, and the final concentration of the test compound in each well ranged from 10 μM to 1 nM. A known inhibitor of PRMT5, EPZ015666, was tested in parallel reaction wells as an assay validation control. The 96-well plate was incubated for 1 hour at room temperature.
Upon completion of the incubation, the reaction supernatant in each well was discarded. Wells were washed with 1×TBST and incubated in blocking buffer for 1 hour. The wells were incubated with a primary antibody recognizing methylated Arg3 residues on Histone H4 for 1 hour. The wells were washed with 1×TBST again and subsequently incubated with an HRP-conjugated secondary antibody for 30 minutes. The wells were washed again with 1×TBST, and equal parts of the chemiluminescence reagents were added into each well. Quantification of luminescence was measured in a plate reader.
Luminescence values were normalized against the positive and negative controls to convert the data into % PRMT5 activity. An inhibitor concentration-dependent curve was plotted against % PRMT5 activity and am IC50 value was determined for each compound.

[1] = system: drug-sensitive cell lines of Table 4; assay: Cell Line Growth Retardation Assay, average maximum effect in sensitive cohort; type: cell-based, Human; conditions: average maximum growth inhibition over sensitive cohort of Table 4; 6 days; up to 1 μM
Description: (§1) Cells were seeded at densities of 1,000-5,000 cells per well in 48-well tissue culture plates. After a 24 h rest period, cells were treated with compound at 1 μM, 0.2 μM, 0.04 μM, 0.008 μM, 0.0016 μM, and 0.00032 μM. A group of cells were treated with the vehicle in which the compound was prepared and served as a control. Prior to treatment, cells were counted and this count was used as a baseline for the calculation of growth inhibition. The cells were grown in the presence of compounds for 6 days and were counted on day 6. All cell counting was performed using a Synentec Cellavista plate imager. Growth inhibition was calculated as a ratio of cell population doublings in the presence of compound versus the absence of compound and expressed as the maximum percentage growth inhibition achieved across the range of tested concentrations of the compound (“maximum effect” or “ME”) calculated by fitting curves to data points from each dose-response assay using the Proc NLIN function in SAS for Windows version 9.2 (SAS Institute, Inc.).
(§2) Human cancer cell lines were grouped as “sensitive” or “resistant” to PRMT5 inhibition based on whether their growth was retarded by JNJ-64619178 (i.e., (1S,2R,3R,5R)-3-(2-(2-amino-3-bromoquinolin-7-yl)ethyl)-5-(4-amino-7H-pyrrolo[2,3-d]pyrimidin-7-yl)cyclopentane-1,2-diol) (data not shown; see Table 4). These sensitive and resistant cohorts were interrogated for response to each compound, and ME was calculated for each cell line using the same technique described above. Average MEs for the sensitive and resistant cohorts were calculated as arithmetic means of the group. “A” represents a percent of maximum effect of 60% or greater, “B” represents a percent of maximum effect of 30% to 59%, and “C” represents a percent of maximum effect of 29% or lower.

[2] = system: drug-resistant cell lines of Table 4; assay: Cell Line Growth Retardation Assay, average maximum effect in resistant cohort; type: cell-based, Human; conditions: average maximum growth inhibition over resistant cohort of Table 4; 6 days; up to 1 μM
Description: as §1, §2

[3] = Measurement of Compound Metabolic Stability in hepatocytes; type: in vitro ADME; conditions: mouse hepatocytes; for hepatocyte CLint at 1 μM: read-out: CLint (μL/min/10^6)
Description: The metabolic stability of compounds was determined in hepatocytes from human, mice and rats. Compounds were diluted to 5 μM in Williams' Medium E from 10 mM stock solutions. 10 μL of each compound was aliquoted into a well of a 96-well plate and reactions were started by aliquoting 40 μL of a 625,000 cells/mL suspension into each well. The plate was incubated at 37° C. with 5% CO2. At each corresponding time point, the reaction was stopped by quenching with ACN containing internal standards (IS) at a 1:3. Plates were shaken at 500 rpm for 10 min, and then centrifuged at 3,220×g for 20 minutes. Supernatants were transferred to another 96-well plate containing a dilution solution. Supernatants were analyzed by LC/MS/MS. The Half-lives (in minutes) and CLint values (in μL/min/10^6 cells) of example compounds, as measured in mouse hepatocytes, are presented in Table 3. […] For CLint, “A” represents greater than 100 μL/min/10^6 cells, “B” represents 50 to 100 μL/min/10^6 cells, and “C” represents less than 50 μL/min/10^6 cells.
The remaining percent of compound after incubation was calculated using the following equation: % Remaining Compound=Peak Area Ratios of Tested Compound vs. Internal Standard at End Point • Peak Area Ratios of Tested Compound vs. Internal Standard at Start Point Compound half-life and CLint were calculated using the following equations: Ct=C0*e^−k*t(first order kinetics); when […], t1/2=ln 2/k=0.693/k; and CLint=k/(1,000,000 cells/mL) Activity-Guided Selection of Inhibitors

T1 sequence (O14744 2-637 limits assumed): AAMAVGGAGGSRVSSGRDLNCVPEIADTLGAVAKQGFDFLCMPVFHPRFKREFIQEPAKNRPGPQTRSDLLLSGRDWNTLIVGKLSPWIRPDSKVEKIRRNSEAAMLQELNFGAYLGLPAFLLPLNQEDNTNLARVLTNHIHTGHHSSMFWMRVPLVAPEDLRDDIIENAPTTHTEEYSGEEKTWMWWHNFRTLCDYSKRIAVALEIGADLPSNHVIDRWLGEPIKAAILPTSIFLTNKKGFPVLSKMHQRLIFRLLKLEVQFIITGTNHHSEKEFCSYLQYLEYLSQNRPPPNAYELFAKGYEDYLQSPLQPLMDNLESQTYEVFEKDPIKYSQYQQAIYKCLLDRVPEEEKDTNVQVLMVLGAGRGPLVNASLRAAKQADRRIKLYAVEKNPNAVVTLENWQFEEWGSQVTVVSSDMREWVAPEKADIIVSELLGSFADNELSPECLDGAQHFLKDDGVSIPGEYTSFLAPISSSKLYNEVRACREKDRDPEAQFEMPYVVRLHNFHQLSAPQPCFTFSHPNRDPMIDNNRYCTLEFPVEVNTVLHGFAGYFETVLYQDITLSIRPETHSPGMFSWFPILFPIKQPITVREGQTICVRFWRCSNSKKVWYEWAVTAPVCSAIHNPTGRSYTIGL
T1 sequence (Q9BQA1 2-342 partner limits assumed): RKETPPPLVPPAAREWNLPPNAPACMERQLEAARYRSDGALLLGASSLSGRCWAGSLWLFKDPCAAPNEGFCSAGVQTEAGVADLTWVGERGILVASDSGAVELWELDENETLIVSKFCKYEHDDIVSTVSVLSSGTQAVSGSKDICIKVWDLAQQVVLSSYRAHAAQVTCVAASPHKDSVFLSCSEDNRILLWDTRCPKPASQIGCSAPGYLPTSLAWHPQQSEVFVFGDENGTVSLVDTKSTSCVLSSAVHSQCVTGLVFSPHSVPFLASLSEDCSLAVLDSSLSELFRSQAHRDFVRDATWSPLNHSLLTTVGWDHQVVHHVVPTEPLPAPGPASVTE

Row | SMILES | IC50 (PRMT5) [nM] | half-life at 1 μM [3] [min] | hepatocyte CLint at 1 μM [3] [µL/min/1e6 cells] | AvgSens ME (%) [1] | AvgRes ME (%) [2]
1 | O[C@H]1[C@H](n2ccc3c(Cl)ncnc32)C[C@@]2(CNC(c3ccc4cc(Br)c(Cl)nc4c3)C2)[C@H]1O (single isomer, unassigned) [Compound 1] | > 500 | – | – | C (a percent of maximum effect of 29% or lower) | C (a percent of maximum effect of 29% or lower)
2 | O[C@H]1[C@H](n2ccc3c(Cl)ncnc32)C[C@@]2(CNC(c3ccc4cc(Br)c(Cl)nc4c3)C2)[C@H]1O (single isomer, unassigned) [Compound 2] | > 500 | – | – | C (a percent of maximum effect of 29% or lower) | C (a percent of maximum effect of 29% or lower)
3 | Nc1ncnc2c1ccn2[C@@H]1C[C@@]2(CNC(c3ccc4cc(Br)c(Cl)nc4c3)C2)[C@@H](O)[C@H]1O (single isomer, unassigned) [Compound 3] | > 500 | – | – | C (a percent of maximum effect of 29% or lower) | C (a percent of maximum effect of 29% or lower)
4 | Nc1ncnc2c1ccn2[C@@H]1C[C@@]2(CNC(c3ccc4cc(Br)c(Cl)nc4c3)C2)[C@@H](O)[C@H]1O (single isomer, unassigned) [Compound 4] | 101 to 500 | – | – | C (a percent of maximum effect of 29% or lower) | C (a percent of maximum effect of 29% or lower)
5 | CN1C[C@]2(CC1c1ccc3cc(Br)c(N)nc3c1)C[C@@H](n1ccc3c(N)ncnc31)[C@H](O)[C@@H]2O (single isomer, unassigned) [Compound 5] | 101 to 500 | – | – | C (a percent of maximum effect of 29% or lower) | C (a percent of maximum effect of 29% or lower)
6 | CN1C[C@]2(CC1c1ccc3cc(Br)c(N)nc3c1)C[C@@H](n1ccc3c(N)ncnc31)[C@H](O)[C@@H]2O (single isomer, unassigned) [Compound 6] | > 500 | – | – | C (a percent of maximum effect of 29% or lower) | C (a percent of maximum effect of 29% or lower)
7 | Nc1nc2cc(C3C[C@@]4(CN3)C[C@@H](n3ccc5c(Cl)ncnc53)[C@H](O)[C@@H]4O)ccc2cc1Br (single isomer, unassigned) [Compound 10] | 101 to 500 | – | – | C (a percent of maximum effect of 29% or lower) | C (a percent of maximum effect of 29% or lower)
8 | CCCNc1ncnc2c1ccn2[C@@H]1C[C@@]2(CO[C@@H](c3ccc4cc(Br)c(N)nc4c3)C2)[C@@H](O)[C@H]1O [Compound 26] | ≤ 100 | – | – | B (a percent of maximum effect of 30% to 59%) | B (a percent of maximum effect of 30% to 59%)

Now from value to molecule, other results behind:

Row | IC50 (PRMT5) [nM] | half-life at 1 μM [3] [min] | hepatocyte CLint at 1 μM [3] [µL/min/1e6 cells] | SMILES | AvgSens ME (%) [1] | AvgRes ME (%) [2]
9 | ≤ 100 | – | – | Nc1nc2cc(C3C[C@@]4(CN3)C[C@@H](n3ccc5c(N)ncnc53)[C@H](O)[C@@H]4O)ccc2cc1Br (single isomer, unassigned) [Compound 7] | A (a percent of maximum effect of 60% or greater) | B (a percent of maximum effect of 30% to 59%)
10 | ≤ 100 | – | – | Nc1nc2cc(C3C[C@@]4(CO3)C[C@@H](n3ccc5c(N)ncnc53)[C@H](O)[C@@H]4O)ccc2cc1Br (single isomer, unassigned) [Compound 16] | A (a percent of maximum effect of 60% or greater) | B (a percent of maximum effect of 30% to 59%)
11 | ≤ 100 | – | – | Nc1nc2cc(C3C[C@@]4(CO3)C[C@@H](n3ccc5c(Cl)ncnc53)[C@H](O)[C@@H]4O)ccc2cc1Br (stereo partly shown) [Compound 18] | C (a percent of maximum effect of 29% or lower) | C (a percent of maximum effect of 29% or lower)
12 | ≤ 100 | < 15 | > 100 | Nc1ccc2ccc([C@H]3C[C@@]4(CO3)C[C@@H](n3ccc5c(Cl)ncnc53)[C@H](O)[C@@H]4O)cc2n1 [Compound 20] | A (a percent of maximum effect of 60% or greater) | B (a percent of maximum effect of 30% to 59%)
13 | ≤ 100 | < 15 | > 100 | Nc1ccc2ccc([C@H]3C[C@@]4(CO3)C[C@@H](n3ccc5cncnc53)[C@H](O)[C@@H]4O)cc2n1 [Compound 21] | A (a percent of maximum effect of 60% or greater) | B (a percent of maximum effect of 30% to 59%)
14 | ≤ 100 | – | – | CC(C)Nc1ncnc2c1ccn2[C@@H]1C[C@@]2(CO[C@@H](c3ccc4cc(Br)c(N)nc4c3)C2)[C@@H](O)[C@H]1O [Compound 25] | B (a percent of maximum effect of 30% to 59%) | C (a percent of maximum effect of 29% or lower)
